In ChEMBL document CHEMBL1154997, “Inhibitors of dipeptidyl peptidase 8 and dipeptidyl peptidase 9. Part 1: identification of dipeptide derived leads” (Bioorg Med Chem Lett, 2008) one finds IC50 and Ki data, which are given here for 47 compounds.

By IC50 is commonly meant the point on the concentration scale where inhibition reaches its midpoint. Low values mean greater potency in that assay, high ones weaker potency in that assay. For orientation: Ki means the dissociation constant of the complex between target and ligand, obtained from inhibition or displacement. High values mean a looser hold on the target, low ones a stronger hold on the target.

Some results are limits rather than exact numbers.

Some targets named below: Dipeptidyl peptidase 2 (Homo sapiens, UniProt Q9UHL4); Dipeptidyl peptidase 4 (Homo sapiens, UniProt P27487); Dipeptidyl peptidase 8 (Homo sapiens, UniProt Q6V1X1); Dipeptidyl peptidase 9 (Homo sapiens, UniProt Q86TI2).

Chain of Dipeptidyl peptidase 8 (Q6V1X1 whole entry): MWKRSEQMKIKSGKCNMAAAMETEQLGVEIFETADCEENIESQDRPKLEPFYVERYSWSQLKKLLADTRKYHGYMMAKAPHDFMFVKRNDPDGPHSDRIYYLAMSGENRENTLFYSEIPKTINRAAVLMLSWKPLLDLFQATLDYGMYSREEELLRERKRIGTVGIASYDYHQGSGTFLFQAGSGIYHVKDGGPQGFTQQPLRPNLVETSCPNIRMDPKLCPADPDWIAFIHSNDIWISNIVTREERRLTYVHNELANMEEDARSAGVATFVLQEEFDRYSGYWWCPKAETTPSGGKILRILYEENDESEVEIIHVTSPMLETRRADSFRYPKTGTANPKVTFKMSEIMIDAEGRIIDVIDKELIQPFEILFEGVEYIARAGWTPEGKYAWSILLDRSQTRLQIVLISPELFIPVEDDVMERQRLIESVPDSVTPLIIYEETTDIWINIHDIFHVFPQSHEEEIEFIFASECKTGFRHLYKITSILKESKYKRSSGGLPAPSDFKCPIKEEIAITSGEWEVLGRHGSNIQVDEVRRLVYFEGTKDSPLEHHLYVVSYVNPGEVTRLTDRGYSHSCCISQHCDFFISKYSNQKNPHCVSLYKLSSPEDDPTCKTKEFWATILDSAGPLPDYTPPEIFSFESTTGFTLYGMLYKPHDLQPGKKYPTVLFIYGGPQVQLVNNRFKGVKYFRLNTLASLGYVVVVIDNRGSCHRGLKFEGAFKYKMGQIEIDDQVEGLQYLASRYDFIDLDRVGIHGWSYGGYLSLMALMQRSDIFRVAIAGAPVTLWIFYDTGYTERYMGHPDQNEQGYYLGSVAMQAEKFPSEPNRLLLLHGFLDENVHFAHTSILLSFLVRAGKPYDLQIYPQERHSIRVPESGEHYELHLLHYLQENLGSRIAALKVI
Chain of Dipeptidyl peptidase 4 (P27487 whole entry): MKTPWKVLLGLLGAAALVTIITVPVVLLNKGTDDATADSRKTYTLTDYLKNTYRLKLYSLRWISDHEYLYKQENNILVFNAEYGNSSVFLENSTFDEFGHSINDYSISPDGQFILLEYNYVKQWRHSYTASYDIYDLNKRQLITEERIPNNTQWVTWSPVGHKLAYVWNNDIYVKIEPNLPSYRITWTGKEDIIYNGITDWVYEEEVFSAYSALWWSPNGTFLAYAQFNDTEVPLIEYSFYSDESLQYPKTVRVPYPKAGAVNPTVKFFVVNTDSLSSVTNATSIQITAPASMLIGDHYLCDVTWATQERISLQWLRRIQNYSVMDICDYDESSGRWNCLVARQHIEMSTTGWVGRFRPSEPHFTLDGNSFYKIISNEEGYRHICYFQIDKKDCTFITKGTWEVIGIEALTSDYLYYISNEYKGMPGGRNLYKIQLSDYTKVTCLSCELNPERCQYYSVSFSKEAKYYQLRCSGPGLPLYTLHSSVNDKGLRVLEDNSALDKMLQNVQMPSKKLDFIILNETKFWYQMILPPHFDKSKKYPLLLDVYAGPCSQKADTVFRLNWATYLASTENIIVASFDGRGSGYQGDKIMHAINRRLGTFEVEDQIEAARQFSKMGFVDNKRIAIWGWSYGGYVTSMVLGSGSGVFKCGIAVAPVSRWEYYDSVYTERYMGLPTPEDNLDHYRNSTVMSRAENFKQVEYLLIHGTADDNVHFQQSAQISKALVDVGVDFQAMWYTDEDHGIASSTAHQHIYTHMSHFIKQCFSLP
Chain of Dipeptidyl peptidase 9 (Q86TI2 whole entry): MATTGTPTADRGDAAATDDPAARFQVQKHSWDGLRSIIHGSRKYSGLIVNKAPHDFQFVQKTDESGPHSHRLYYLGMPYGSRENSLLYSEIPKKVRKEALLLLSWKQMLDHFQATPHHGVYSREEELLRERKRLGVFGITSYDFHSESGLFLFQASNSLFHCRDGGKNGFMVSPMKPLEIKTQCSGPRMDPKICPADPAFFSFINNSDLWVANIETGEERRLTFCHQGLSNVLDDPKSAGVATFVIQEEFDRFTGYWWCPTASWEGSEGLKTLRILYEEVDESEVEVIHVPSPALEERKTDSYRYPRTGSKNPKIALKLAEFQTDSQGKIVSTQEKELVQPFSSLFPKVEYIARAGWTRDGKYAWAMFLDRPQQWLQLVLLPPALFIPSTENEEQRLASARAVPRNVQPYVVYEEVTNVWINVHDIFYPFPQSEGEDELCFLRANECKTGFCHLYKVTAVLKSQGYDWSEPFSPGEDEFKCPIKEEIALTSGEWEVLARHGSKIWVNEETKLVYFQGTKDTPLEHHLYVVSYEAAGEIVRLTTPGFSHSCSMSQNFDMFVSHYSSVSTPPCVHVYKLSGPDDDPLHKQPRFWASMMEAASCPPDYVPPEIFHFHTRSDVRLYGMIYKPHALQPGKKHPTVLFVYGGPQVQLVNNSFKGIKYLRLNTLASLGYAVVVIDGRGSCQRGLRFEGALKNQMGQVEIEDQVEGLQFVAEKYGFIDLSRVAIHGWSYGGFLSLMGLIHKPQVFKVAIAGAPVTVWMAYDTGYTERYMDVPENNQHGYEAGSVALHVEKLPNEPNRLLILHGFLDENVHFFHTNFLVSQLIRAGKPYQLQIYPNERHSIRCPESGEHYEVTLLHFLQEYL

For `CC(C)[C@H](N)C(=O)N1CCCC1`, half-maximal inhibition against Dipeptidyl peptidase 2 (IC50) required 153 µM.

Regarding `CCCC[C@H](N)C(=O)N1CCCC1`, the results for the IC50 at Dipeptidyl peptidase 4 and against Dipeptidyl peptidase 2 were 15 µM and 60 µM, respectively.

As for `NC(=O)C[C@H](N)C(=O)N1CCCC1`, the IC50 was more than 500 µM against Dipeptidyl peptidase 8, 188 µM at Dipeptidyl peptidase 4 and 152 µM against Dipeptidyl peptidase 2.

In turn, `C[C@H](N)C(=O)N1CCCC1` displayed an IC50 against Dipeptidyl peptidase 8 of 411 µM.

Turning to `CC[C@H](C)[C@H](N)C(=O)N1CCCCCC1`, the IC50 was 612 µM at Dipeptidyl peptidase 8, more than 100 µM against Dipeptidyl peptidase 9, 374 µM on Dipeptidyl peptidase 4 and 228 µM against Dipeptidyl peptidase 2.

`NCCCC[C@H](N)C(=O)N1CCCc2ccccc21`: the IC50 at Dipeptidyl peptidase 8 is 312 µM; against Dipeptidyl peptidase 9, more than 100 µM; against Dipeptidyl peptidase 4 it was more than 1000 µM; against Dipeptidyl peptidase 2 it was 393 µM.

For the compound `N[C@@H](Cc1c[nH]c2ccccc12)C(=O)N1CCCC1`, the IC50 was 242 µM on Dipeptidyl peptidase 8, more than 100 µM at Dipeptidyl peptidase 9, 286 µM at Dipeptidyl peptidase 4 and 49 µM against Dipeptidyl peptidase 2.

Turning to `CC[C@H](C)[C@H](N)C(=O)N1CC=CCC1`, the IC50 was more than 50 µM at Dipeptidyl peptidase 9, 52 µM at Dipeptidyl peptidase 4 and 52 µM on Dipeptidyl peptidase 2.

As to `CC(C)C[C@H](N)C(=O)N1CCCC1`, the IC50 against Dipeptidyl peptidase 4 worked out at 24 µM; on Dipeptidyl peptidase 2 it was 122 µM.

Consider `N[C@@H](Cc1ccccc1)C(=O)N1CCCC1`, for which the IC50 came to 115 µM against Dipeptidyl peptidase 8, 21 µM at Dipeptidyl peptidase 4 and 79 µM on Dipeptidyl peptidase 2.

Consider `NCCCC[C@H](N)C(=O)N1CCSC1`, for which the figures for the IC50 against Dipeptidyl peptidase 4 and at Dipeptidyl peptidase 2 were 23 µM and 2.9 µM, respectively.

As to `N[C@@H](CCC(=O)O)C(=O)N1CCCC1`, the IC50 was more than 1000 µM against Dipeptidyl peptidase 8, more than 100 µM on Dipeptidyl peptidase 9, more than 1000 µM on Dipeptidyl peptidase 4 and more than 1000 µM at Dipeptidyl peptidase 2.

`[N-]=[N+]=NC1CCN(C(=O)[C@@H](N)CCCCN)C1` (stereo partly specified) had an IC50 against Dipeptidyl peptidase 2 of 4.9 µM.

In the case of `CC[C@H](C)[C@H](N)C(=O)NC1CCCC1`, the half-inhibitory concentration (IC50) at Dipeptidyl peptidase 8 was more than 1000 µM; at Dipeptidyl peptidase 9, more than 100 µM; against Dipeptidyl peptidase 4, more than 1000 µM; at Dipeptidyl peptidase 2, more than 100 µM.

Consider `N[C@@H](CS)C(=O)N1CCCC1`, for which the IC50 came to 37 µM against Dipeptidyl peptidase 4 and 19 µM against Dipeptidyl peptidase 2.

For `C[C@@H](O)[C@H](N)C(=O)N1CCCC1`, the figures for the IC50 against Dipeptidyl peptidase 4 and on Dipeptidyl peptidase 2 were 98 µM and 230 µM, respectively.

In the case of `N[C@@H](CO)C(=O)N1CCCC1`, the IC50 against Dipeptidyl peptidase 8 was more than 500 µM; on Dipeptidyl peptidase 4, 190 µM; against Dipeptidyl peptidase 2, 65 µM.

For the compound `N[C@@H](CCCCNC(=O)OCc1ccccc1)C(=O)N1CCCC1`, the IC50 on Dipeptidyl peptidase 4 was found to be 15.6 µM; against Dipeptidyl peptidase 2, 5.7 µM.

As to `NCCC[C@H](N)C(=O)N1CCCC1`, the IC50 worked out at 118 µM against Dipeptidyl peptidase 4 and 9.8 µM against Dipeptidyl peptidase 2.

As to `N[C@@H](CCCNC(=O)OCc1ccccc1)C(=O)N1CCCC1`, the values for the IC50 against Dipeptidyl peptidase 4 and on Dipeptidyl peptidase 2 were 9.7 µM and 3.7 µM, respectively.

In the case of `CC[C@H](C)[C@H](N)C(=O)N1CCC(N=[N+]=[N-])C1` (stereo partly specified), the figures for the 50% inhibitory concentration (IC50) on Dipeptidyl peptidase 4 and on Dipeptidyl peptidase 2 were 107 µM and 43 µM, respectively.

For the compound `CC[C@H](C)[C@H](N)C(=O)N1CCC(F)C1` (stereo partly specified), the IC50 worked out at 3.5 µM at Dipeptidyl peptidase 4 and 111 µM against Dipeptidyl peptidase 2.

In the case of `CC[C@H](C)[C@H](N)C(=O)N1CCC(Cl)C1` (stereo partly specified), the IC50 came out at 94 µM against Dipeptidyl peptidase 4 and 30 µM at Dipeptidyl peptidase 2.

Take `N[C@@H](CCCCNC(=O)OCc1ccccc1)C(=O)N1CCSC1`: the results for the IC50 against Dipeptidyl peptidase 4 and against Dipeptidyl peptidase 2 were 3.7 µM and 1.02 µM, respectively.

Regarding `N=C(N)NCCC[C@H](N)C(=O)N1CCCC1`, the IC50 was 12.7 µM against Dipeptidyl peptidase 4 and 3.1 µM on Dipeptidyl peptidase 2.

Regarding `N=C(NCCC[C@H](NC(=O)OCc1ccccc1)C(=O)N1CCCC1)NC(=O)OCc1ccccc1`, the values for the IC50 at Dipeptidyl peptidase 4 and against Dipeptidyl peptidase 2 were 16.8 µM and 0.86 µM, respectively.

On to `CC[C@H](C)[C@H](N)C(=O)N1CC=CC1`, for which the values for the IC50 against Dipeptidyl peptidase 4 and at Dipeptidyl peptidase 2 were 15 µM and 288 µM, respectively.

As to `CC[C@H](C)[C@H](N)C(=O)N1CCC1`, the IC50 at Dipeptidyl peptidase 8 was 127 µM; against Dipeptidyl peptidase 9 it was more than 100 µM; on Dipeptidyl peptidase 4 it was 50.4 µM; at Dipeptidyl peptidase 2, 730 µM.

As for `NCCCC[C@H](N)C(=O)N1CCC(O)C1` (stereo partly specified), the IC50 against Dipeptidyl peptidase 8 stood at 139 µM; against Dipeptidyl peptidase 4, 500 µM; against Dipeptidyl peptidase 2, 48 µM.

In turn, `N#C[C@@H]1CCCN1C(=O)[C@@H](N)CCCCN` registered an IC50 on Dipeptidyl peptidase 2 of 0.577 µM. This lies in the sub-micromolar range.

With `N#C[C@@H]1CCCCN1C(=O)[C@@H](N)CCCCN`, the values for the IC50 on Dipeptidyl peptidase 4 and on Dipeptidyl peptidase 2 were 51 µM and 1.5 µM, respectively.

As for `N#C[C@@H]1CCCN1C(=O)[C@@H](N)CCCCNC(=O)OCc1ccccc1`, the results for the IC50 at Dipeptidyl peptidase 4 and against Dipeptidyl peptidase 2 were 0.035 µM and 0.84 µM, respectively.

In the case of `N#C[C@@H]1C[C@H](N=[N+]=[N-])CN1C(=O)[C@@H](N)CCCCN`, the figures for the IC50 at Dipeptidyl peptidase 4 and on Dipeptidyl peptidase 2 were 2.2 µM and 0.31 µM, respectively.

On to `N#C[C@@H]1C[C@H](N=[N+]=[N-])CN1C(=O)[C@@H](N)CCCCNC(=O)OCc1ccccc1`, for which the IC50 against Dipeptidyl peptidase 4 turned out to be 0.53 µM; at Dipeptidyl peptidase 2 it was 0.35 µM.

As to `N#C[C@@H]1C[C@H](N=[N+]=[N-])CN1C(=O)[C@@H](N)CCCCNc1ccc2ccccc2c1`, the IC50 came out at 0.56 µM against Dipeptidyl peptidase 4 and 0.034 µM against Dipeptidyl peptidase 2.

For `N#C[C@@H]1C[C@H](N=[N+]=[N-])CN1C(=O)[C@@H](N)CCCCN(c1ccc2ccccc2c1)c1ccc2ccccc2c1`, at Dipeptidyl peptidase 2, the IC50 amounted to 0.068 µM.

`N[C@@H](CC(=O)O)C(=O)N1CCCC1` yielded an IC50 against Dipeptidyl peptidase 8 of more than 1000 µM.

As for `NCCCC[C@H](N)C(=O)N1CCCC1`, the half-maximal inhibitory concentration (IC50) against Dipeptidyl peptidase 4 turned out to be 39 µM; at Dipeptidyl peptidase 2 it was 9.9 µM.

In the case of `N[C@@H](Cc1c[nH]cn1)C(=O)N1CCCC1`, the IC50 is more than 500 µM against Dipeptidyl peptidase 8, more than 100 µM against Dipeptidyl peptidase 9, 23.1 µM against Dipeptidyl peptidase 4 and 1.2 µM against Dipeptidyl peptidase 2.

Turning to `CC[C@H](C)[C@H](N)C(=O)N1CCC(O)C1` (stereo partly specified), the IC50 is 130 µM at Dipeptidyl peptidase 8, more than 100 µM against Dipeptidyl peptidase 9, 93 µM on Dipeptidyl peptidase 4 and 299 µM at Dipeptidyl peptidase 2.

`CC(C)[C@H](N)C(=O)N1CSC[C@H]1B(O)O` came in with a half-maximal inhibitory concentration (IC50) against Dipeptidyl peptidase 2 of 0.086 µM.

`N[C@@H](Cc1ccc(O)cc1)C(=O)N1CCCC1`: the values for the IC50 at Dipeptidyl peptidase 4 and against Dipeptidyl peptidase 2 were 43.5 µM and 15.7 µM, respectively.

As for `N[C@@H](CCCCNC(=O)OCc1ccccc1)C(=O)N1CCCc2ccccc21`, the IC50 at Dipeptidyl peptidase 8 was more than 500 µM; on Dipeptidyl peptidase 9, more than 100 µM; on Dipeptidyl peptidase 4, more than 1000 µM; at Dipeptidyl peptidase 2, 390 µM.

Regarding `N#C[C@@H]1C[C@H](N=[N+]=[N-])CN1C(=O)[C@@H](N)CCCCN(c1cccc2ccccc12)c1cccc2ccccc12`, the IC50 against Dipeptidyl peptidase 4 amounted to 2.5 µM; at Dipeptidyl peptidase 2, 0.025 µM.

As for `CC[C@H](C)[C@H](N)C(=O)N1CCCCC1`, the values for the IC50 against Dipeptidyl peptidase 4 and on Dipeptidyl peptidase 2 were 67 µM and 59 µM, respectively.

For `NCC(=O)N1CCCC1`, the IC50 against Dipeptidyl peptidase 8 and at Dipeptidyl peptidase 9 was more than 1000 µM each time.

In turn, `N[C@@H](CCNCc1ccc(Cl)cc1)C(=O)N1CCCCC1` displayed an IC50 at Dipeptidyl peptidase 9 of 76.6 µM. At Dipeptidyl peptidase 2, this compound displayed an IC50 of less than 0.0005 µM and a Ki of 0.082 nM.
